Data from PMC5145181, “Structural Mapping and Functional Characterization of Zebrafish Class B G-Protein Coupled Receptor (GPCR) with Dual Ligand Selectivity towards GLP-1 and Glucagon” (PLoS ONE, 2016).
Like-named read-outs stand apart in the source and are kept apart here.

Tests used:
[1] = tested on: hGLP-1R mutant Asn318 to alanine; parameters: method as in PMID 23479653; details: Asn318 mutated to alanine, cell surface expression unchanged; cited from earlier work
[2] = tested on: zfGPCR (dual zfGLP-1R/GCGR); experiment: Competitive binding, displacement of 125I-exendin(9–39) from recombinant zfGPCR expressed in COS-7 cells; parameters: species or system zebrafish (Danio rerio); details: 125I-exendin(9–39) tracer, intact COS-7 cells, 16–18 h at 4°C, triplicate wells, NSB with 1 μM peptide, n = 4 zfGLP-1, n = 3 hGLP-1, zf glucagon, exendin-4, n = 5 exendin(9–39). 95% CI: zfGLP-1 225–371, hGLP-1 121–262, zf glucagon 78.5–144, h glucagon 33.6–134, exendin-4 0.84–1.17, exendin(9–39) 3.42–5.17
Method: Competitive binding experiments were performed with the recombinant zfGPCR expressed in COS-7 cells, as described previously. Transient transfections of pcDNA3 vector containing recombinant zfGPCR into COS-7 cells were performed as described below for the stimulation of intracellular cAMP. Cells were grown in 100-mm plates to confluence and 24 hr after transfection they were trypsinized and transferred to 24 well plates (Biocore, Becton Dickinson). 24–48 hr later each peptide (pM to μM) was added in triplicate wells followed by the addition of an aliquot (100,000 cpm/well) of either ^125I-hGLP-1(7–36)amide or ^125I-exendin(9–39) (each radioactive peptide tracer at […] receptor grade, NEN Life Science Products, Boston, MA). Peptides, radioiodinated ^125I-tracer and cells were incubated for 16–18 h at 4°C. After incubation cells were washed twice with ice-cold PBS, lysed with 1N NaOH and radioactivity measured in a γ-counter. A single dose-displacement curve for each peptide was obtained in a single 24-well plate.
Non-specific binding was determined in the presence of 1μM of each peptide.
IC50 values represent an average of n experiments as described above and were calculated by the Prism 4 software. Displacement curves from the competitive binding experiments were plotted by Origin 9 software (OriginLab). Error bars are shown for data points in the displacement curves obtained in two or more rounds of transfections.
Results from the functional experiments with recombinant zfGPCR transiently expressed in COS-7 cells were analyzed by the Prism 4 software using a four-parameter logistic sigmoidal curve fit model. Data points represent mean +/- SEM.
They are shown together with the 95% confidence intervals (CIs). The F-test was used to compare the IC50 value for zfGLP-1 with the IC50 values for the other tested peptides obtained in the competitive binding experiments shown when ^125I-hGLP-1(7–36)amide or ^125I-exendin (9–39) were used as tracers. Following conditions were used for the curve fitting: (i) in the normalization step y = 0%was set to be 0, y = 100% was set to be 100; (ii) constrained curve-fit parameters were set to be equal to 0.00 on the bottom, 100 on top; (iii) IC50 was not constrained; (iv) the selected option in the non-linear regression curve fit was intended on finding out whether the best-fit of a selected parameter (IC50) differs between two sets.

[3] = tested on: hGLP-1R mutant Ser155 to alanine; details: Ser152 in hGCGR = Ser155 in hGLP-1R, mutated to alanine; cited from earlier work
Description: Among those are TM1-TM7 interaction between Ser152^1.50 and Ser 390^7.47 in which Ser152^1.50 in TM1 in hGCGR forms a hydrogen bond with the backbone of Ser390^7.47 in TM7.

[4] = tested on: zfGPCR (dual zfGLP-1R/GCGR); details: cited from earlier work
Method: Furthermore, exendin-4, an agonist of hGLP-1R, displaced in competitive binding experiments the binding of ^125I-hGLP-1(7–36) amide to the zebrafish receptor with an IC50 of 0.9 nM, which is within a similar concentration range as the one determined in competitive binding experiments with recombinant hGLP-1R [41] and rGLP-1R [23]. However, subsequent phylo ...

For “exendin-4: peptide exclusively found in the saliva of a lizard; agonist of GLP-1R; purchased from Bachem”, the receptor affinity [1] is given as “reduced the receptor’s affinity”, the IC50 [2] is given as 1 nM and the receptor affinity [3] is given as “small reduction of receptor affinity”. For the same substance, the “IC50 (in words)” value ([4]; competitive binding, recombinant zfGPCR, similar to rGLP-1R and hGLP-1R) was “in the low nM range” and the IC50 ([4]; displacement of 125I-hGLP-1(7–36)amide, read-out: IC50 in competitive binding (earlier characterization of the zfGPCR)) was 0.9 nM.
